According to ChEMBL document CHEMBL3580654, “Tetranorsesquiterpenoids and Santalane-Type Sesquiterpenoids from Illicium lanceolatum and Their Antimicrobial Activity against the Oral Pathogen Porphyromonas gingivalis” (J Nat Prod, 2015):
Calls of active or inactive are those of the source. The calls are words filed in the database; no cut-off is given here.

What was measured:
Streptococcus oralis = test: Antibacterial activity against Streptococcus oralis SK23 assessed as effect on growth at 5 to 20 ug/ml after 24 hrs by microplate reader analysis; type: functional; details: ATCC 35037
[1] = tested on: Streptococcus parasanguinis; test: Antibacterial activity against […] ATCC 903 assessed as effect on growth at 5 to 20 ug/ml after 24 hrs by microplate reader analysis; type: functional
Streptococcus sobrinus = test: Antibacterial activity against Streptococcus sobrinus MT10186 assessed as effect on growth at 5 to 20 ug/ml after 24 hrs by microplate reader analysis; type: functional, organism-based
Streptococcus mutans [2] = test: Antibacterial activity against Streptococcus mutans MT8148 assessed as growth inhibition at 20 ug/ml after 24 hrs by microplate reader analysis; type: functional, organism-based
Porphyromonas gingivalis [3] = test: Antibacterial activity against Porphyromonas gingivalis ATCC 33277 assessed as growth inhibition at 10 to 20 ug/ml after 100 hrs by microplate reader analysis; type: functional, organism-based
Streptococcus mutans [4] = test: Antibacterial activity against Streptococcus mutans MT8148 assessed as growth inhibition at 5 to 20 ug/ml after 24 hrs by microplate reader analysis; type: functional, organism-based
Porphyromonas gingivalis [5] = test: Antibacterial activity against Porphyromonas gingivalis ATCC 33277 assessed as growth inhibition at 5 to 20 ug/ml after 100 hrs by microplate reader analysis; type: functional, organism-based

SMILES	Activity (Streptococcus oralis)	Activity [1]	Activity (Streptococcus sobrinus)	growth inhibition (GI) (Streptococcus mutans [2])	growth inhibition (GI) (Porphyromonas gingivalis [3])	growth inhibition (GI) (Streptococcus mutans [4])	growth inhibition (GI) (Porphyromonas gingivalis [5])
CC12CC(=O)O[C@H]3CC1CC[C@]32C	inactive	inactive	inactive				
C=C[C@@]1(C)CC[C@]2(OC(=O)C=C2C)O1	inactive	inactive	inactive				
C=C(C)C(=O)CCC1(C)C2CC3C(C2)C31C (stereo unspecified)	inactive	inactive	inactive	Active	Active		
CC(C)(O)/C=C/CC1(C)C2CC3C(C2)C31C (stereo unspecified)	inactive	inactive	inactive			inactive	inactive
